This is an account of results in PMC4412285, “Broadening the repertoire of melanoma-associated T-cell epitopes” (Cancer Immunology, Immunotherapy : CII, 2015).

What all share (test): MHC ELISA after UV light-mediated peptide exchange
Holding throughout (assay type): binding
What all share (set-up): key: 1 = confirm ed ligand
On the technique in general: ELISA stands for enzyme-linked immunosorbent assay.

The target of one assay is T1, HLA-B7 (Homo sapiens, UniProt P01889).
T1 construct: made in house; host or cells: Escherichia coli
The following applies: MHC rescue after UV-induced peptide exchange, absorbance normalized to control ligand HLA-B7/CMV pp65RPH, selected if above 0.70 of control in either of two experiments, duplicates.

For another assay, the target named is T2, HLA-A11 (Homo sapiens, UniProt P04439, A114D/F33Y/S129P).
T2 construct: made in house; host or cells: Escherichia coli
The following applies: MHC rescue after UV-induced peptide exchange, absorbance normalized to control ligand HLA-A11/EBV EBNA4AVF, selected if above 0.90 of control in either of two experiments, duplicates.

For another assay, the target named is T3, HLA-A3 (Homo sapiens, UniProt P04439).
T3 construct: made in house; host or cells: Escherichia coli
Conditions: MHC rescue after UV-induced peptide exchange, absorbance normalized to control ligand HLA-A3/FLU NPILR, selected if above 0.63 and 0.50 of control, respectively, in either of two experiments, duplicates.

For the sequence VPLAHSSSAF [gp100 198-207], at HLA-B7, the Confirmed ligand is listed as 1.

QTSAGHFPR [Tyrosinase 14-22] showed a Confirmed ligand at HLA-A11 of 1. As to ALVETSYVK [MAGE-A3 277-285], the Confirmed ligand at HLA-A3 and on HLA-A11 was 1 in each case. Regarding SIFEQWLRR [Tyrosinase 395-403], the Confirmed ligand on HLA-A3 is 1. On the same count and under the same terms, to LLRRNQMGR [TRP-2 306-314] belongs 1.

Turning to FPRACVSSK [Tyrosinase 20-28], the Confirmed ligand on HLA-B7 amounted to 1. On the same count and under the same terms, to VIRQNIHSL [TRP-2 125-133] belongs 1. At HLA-B7, TPRLPSSAD [Tyrosinase 309-317] returned a Confirmed ligand of 1. Still for that read-out and setting: to LPEEKQPLL [Tyrosinase 507-515] belongs 1. The sequence PLMETHLSSK [TRP-2 504-513] had a Confirmed ligand at HLA-A11 of 1. The same measure, in the same setting: to RTKAWNRQLY [gp100 40-49] belongs 1. As to CVSSKNLMEK [Tyrosinase 24-33], the Confirmed ligand at HLA-A3 and at HLA-A11 was 1 each time. Regarding LPHSSSHWL [gp100 630-638], on HLA-B7, the Confirmed ligand worked out at 1. The sequence GAAMVGAVL gave a Confirmed ligand at HLA-B7 of 1. On the same count and under the same terms, to RAMLGTHTM [gp100 176-184] belongs 1. With FLLSCLGCK [TRP-2 8-16], the Confirmed ligand at HLA-A3 and on HLA-A11 was 1 in each case.

Turning to SVLEVFEGR [MAGE-A3 226-234], the Confirmed ligand at HLA-A11 came out at 1.

For YPEWTEAQRL [gp100 49-58], the Confirmed ligand on HLA-B7 is 1.

For GPHISYPPL [MAGE-A3 296-304], the Confirmed ligand at HLA-B7 came out at 1. Consider YMVPFIPLYR [Tyrosinase 425-434], for which the Confirmed ligand on HLA-A11 is given as 1.

For GTATLRLVK, the Confirmed ligand at HLA-A3 and on HLA-A11 was 1 throughout. Take TPAEVSIVVL [gp100 401-410]: on HLA-B7, the Confirmed ligand is 1. At HLA-A3, FFAYLTLAK [Tyrosinase 134-142] showed a Confirmed ligand of 1. Sequence APLGPQFPF [Tyrosinase 63-71] registered a Confirmed ligand on HLA-B7 of 1. The sequence CPIGENSPLL displayed a Confirmed ligand on HLA-B7 of 1. Sequence LPEEKQPLLM [Tyrosinase 507-516] gave a Confirmed ligand on HLA-B7 of 1. For the sequence SLLCRHKRK [Tyrosinase 497-505], the Confirmed ligand at HLA-A3 is recorded as 1. On to GPNCTERRLL [Tyrosinase 109-118], for which, at HLA-B7, the Confirmed ligand was found to be 1.

For the sequence CPRLGAESA [TRP-2 41-49], the Confirmed ligand on HLA-B7 is recorded as 1. For the sequence VSSKNLMEK [Tyrosinase 25-33], the Confirmed ligand on HLA-A3 and at HLA-A11 was 1 in each case. Turning to MPREDAHFI [Mart1 1-9], the Confirmed ligand at HLA-B7 came to 1. The same measure, in the same setting: to CPIGENSPL belongs 1. With TPEATGMTPA [gp100 394-403], at HLA-B7, the Confirmed ligand is 1. For the sequence LPHSAANDPI [TRP-2 382-391], on HLA-B7, the Confirmed ligand turned out to be 1. On the same count and under the same terms, to LPSPACQLVL belongs 1; to VPFSVSVSQL [gp100 213-222], 1.

As for NIFDLSAPEK [Tyrosinase 122-131], the Confirmed ligand at HLA-A3 and at HLA-A11 was 1 throughout. In turn, QYFFPVIFSK [MAGE-A3 144-153] came in with a Confirmed ligand on HLA-A11 of 1. APRGPHGGA [NY-ESO-1 60-68] had a Confirmed ligand on HLA-B7 of 1. Sequence QLVLHQILK came in with a Confirmed ligand at HLA-A3 of 1. FTIPYWDWR [Tyrosinase 231-239] had a Confirmed ligand at HLA-A11 of 1.

At HLA-B7, APRGPHGGAA [NY-ESO-1 60-69] registered a Confirmed ligand of 1.

Take VTVYHRRGSR [gp100 186-195]: on HLA-A11, the Confirmed ligand came to 1. In turn, GTQCALTRR [Mart1 65-73] showed a Confirmed ligand on HLA-A11 of 1.

On HLA-B7, IPLYRNGDF [Tyrosinase 430-438] had a Confirmed ligand of 1.

As for HTMEVTVYH [gp100 182-190], the Confirmed ligand at HLA-A3 and at HLA-A11 was 1 throughout. Turning to APAFLPWHRL [Tyrosinase 204-213], the Confirmed ligand on HLA-B7 stood at 1.

For the sequence VSCQGGLPK [gp100 514-522], the Confirmed ligand on HLA-A11 was 1.

Turning to CMTVDSLVNK [TRP-2 29-38], the Confirmed ligand at HLA-A11 came to 1.

For the sequence RLRKGYTPL [TRP-2 497-505], the Confirmed ligand on HLA-B7 is 1. NQMGRNSMK [TRP-2 310-318] yielded a Confirmed ligand at HLA-A11 of 1. On HLA-A11, AGYNCGDCK [TRP-2 102-110] showed a Confirmed ligand of 1. For the sequence SPQEREQFL [TRP-2 134-142], the Confirmed ligand on HLA-B7 is given as 1. Still for that read-out and setting: to LPTTMNYPL [MAGE-A3 71-79] belongs 1.

VPLAHSSSA [gp100 198-206] gave a Confirmed ligand on HLA-B7 of 1.

Regarding MTVDSLVNK [TRP-2 30-38], the Confirmed ligand at HLA-A3 and on HLA-A11 was 1 in each case. On HLA-B7, APPLPVPGVL [NY-ESO-1 113-122] returned a Confirmed ligand of 1. With GVSRQLRTK [gp100 34-42], the Confirmed ligand on HLA-A3 and at HLA-A11 was 1 in each case. On HLA-A11, MVPFIPLYR [Tyrosinase 426-434] had a Confirmed ligand of 1. Still for that read-out and setting: to MGFNCGNCK [Tyrosinase 96-104] belongs 1.

The sequence TPAEVSIVV [gp100 401-409] had a Confirmed ligand at HLA-B7 of 1. With IALNFPGSQK [gp100 86-95], the Confirmed ligand on HLA-A3 and at HLA-A11 was 1 each time. For ALLAVGATK [gp100 17-25], the Confirmed ligand on HLA-A3 and at HLA-A11 was 1 throughout. At HLA-A11, KISGGPHISY [MAGE-A3 292-301] came in with a Confirmed ligand of 1. On the same count and under the same terms, to RALVETSYVK [MAGE-A3 276-285] belongs 1; to AIFDEWMKR [TRP-2 401-409], 1.

In the case of SPLLSGQQV [gp100 653-661], at HLA-B7, the Confirmed ligand was 1.

SSLPTTMNY [MAGE-A3 69-77] yielded a Confirmed ligand on HLA-A11 of 1. With FLGALDLAK [TRP-2 141-149], the Confirmed ligand on HLA-A3 is 1.

In the case of LLGDNQIMPK [MAGE-A3 189-198], the Confirmed ligand on HLA-A11 turned out to be 1. TVSCQGGLPK [gp100 513-522]: at HLA-A3, the Confirmed ligand is 1.

On HLA-B7, RLVKRQVPL [gp100 465-473] showed a Confirmed ligand of 1. FMGFNCGNCK [Tyrosinase 95-104]: the Confirmed ligand on HLA-A3 and at HLA-A11 was 1 in each case.

Consider RAREPVTKA [MAGE-A3 125-133], for which the Confirmed ligand at HLA-B7 amounted to 1.

As to GTYEGLLRR [TRP-2 301-309], the Confirmed ligand at HLA-A3 and on HLA-A11 was 1 in each case. In turn, KSYLEQASR [Tyrosinase 465-473] gave a Confirmed ligand at HLA-A3 of 1.

As to ALNFPGSQK [gp100 87-95], the Confirmed ligand on HLA-A3 and on HLA-A11 was 1 each time. Turning to VVLASLIYR [gp100 609-617], the Confirmed ligand at HLA-A3 and at HLA-A11 was 1 in each case.

On to RPWSGPYIL [TRP-2 69-77], for which the Confirmed ligand on HLA-B7 is recorded as 1. Same read-out and setting: to GPRGAGAARA [NY-ESO-1 44-53] belongs 1; to SPQGASSLPT [MAGE-A3 64-73], 1.
